Data: publication PMC3541233 (PLoS ONE, 2013)

Target: T1, AmPDH (pyranose dehydrogenase, PDH) (Macropsalliota meleagris, UniProt Q3L245)
T1 construct: gene pdh1; for crystals deglycosylated with alpha-mannosidase (577 residues)
Assay: anaerobic reduction of enzyme FAD, absorption spectra
Assay type: biochemical
Settings: 20 µM oxidized enzyme, 20 µM substrate, 100 mM NaH2PO4 pH 7.5, 25 °C; C2 accessible

T1 sequence (Q3L245 26-602): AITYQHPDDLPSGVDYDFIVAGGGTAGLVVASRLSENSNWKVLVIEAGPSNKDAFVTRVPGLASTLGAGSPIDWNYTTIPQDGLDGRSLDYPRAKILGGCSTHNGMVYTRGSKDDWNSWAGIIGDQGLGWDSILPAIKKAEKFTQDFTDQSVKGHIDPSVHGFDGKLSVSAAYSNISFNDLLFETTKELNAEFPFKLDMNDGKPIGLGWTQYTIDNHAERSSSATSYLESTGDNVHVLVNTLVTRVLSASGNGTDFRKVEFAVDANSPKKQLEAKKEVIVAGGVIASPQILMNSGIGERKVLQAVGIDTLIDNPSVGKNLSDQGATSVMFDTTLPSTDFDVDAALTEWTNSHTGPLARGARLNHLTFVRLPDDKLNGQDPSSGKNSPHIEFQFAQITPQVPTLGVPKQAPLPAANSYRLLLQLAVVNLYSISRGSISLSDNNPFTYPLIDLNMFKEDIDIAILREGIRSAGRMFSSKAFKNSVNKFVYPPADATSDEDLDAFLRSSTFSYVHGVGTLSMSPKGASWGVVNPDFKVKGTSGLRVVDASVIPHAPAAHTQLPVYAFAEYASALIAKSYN

For OC[C@H]1OC(O)[C@H](O)[C@@H](F)[C@@H]1O (stereo partly shown), the “anaerobic reduction of enzyme FAD, absorption spectra” value was “showing that AmPDH was rapidly reduced, presumably by a hydride moiety at glucose C2”.
